From patent publication US20210101881A1 (Ancureall Pharmaceutical (Shanghai) Co., Ltd., priority 2018, published 2021)
Like-named read-outs stand apart in the source and are kept apart here.

Test system: MOLM13 cells
Test: Growth inhibition of CDK9-positive cell line MOLM13 in vitro (CCK8/MTT assay)
Assay type: cell-based, human
Details: Homo sapiens
Method: 1. MOLM13 cell line and cell culture MOLM13 is a CDK9-positive human acute myeloid leukemia cell line from DMSZ. Suspension culture was carried out in RPMI1640 (Gibco) medium with 10% fetal bovine serum (Gibco), 1% penicillin-streptomycin and 2 mM glutamine.
Suspended MOLM-13 cells in logarithmic growth phase were collected by centrifugation (1700 rpm, 3 minutes), the supernatant was discarded, and the cells were counted. A solution with a cell concentration of 2×10^5 cells per milliliter was formulated and inoculated in a 96-well plate (Corning) with 100 microliters per well. The plate was incubated at 37° C., 5% CO2 overnight. On the next day, the test compound was added to the cultured cells in two parallel wells. […]
The present compound and the control compounds were respectively dissolved in DMSO (Sigma).
When the solvent control well became dark yellow, the OD450 nm absorption value was measured, and the cell growth rate was calculated according to the following formula. Cell growth rate %=100*(T−T0)/(C−T0), wherein T=the optical density value of the drug-treated well—the optical density value of the blank control well, T0=the optical density value of the well before drug treatment—the optical density value of the blank control well, C=the optical density value of the solvent control well—the optical density value of the blank control well. […] The assay was repeated three times, and the data was subjected to a biological statistical analysis.

[1] = MOLM-13, MOLM13 cells, cultured 3 to 6 days, CCK8, read-out: IC50 of the compound for inhibiting cell growth, MOLM13 cells

| SMILES | IC50 [1] | IC50 (MOLM-13, read-out: IC50 of the compound for inhibiting cell growth, MOLM13 cells) |
| --- | --- | --- |
| CN1CCN(c2cccc(Nc3ncc(Cl)c(-n4cc(C(N)=O)c5ccccc54)n3)c2)CC1 [Compound 118, 1-{5-chloro-2-[3-(4-methyl-piperazin-1-yl)-phenylamino]-pyrimidin-4-yl}-1H-indole-3-carboxamide] |  | 1 to 10 nM |
| CNC(=O)c1cn(-c2ccnc(Nc3ccc(S(N)(=O)=O)cc3)n2)c2ccccc12 [Compound 108, 1-[2-(4-sulfamoyl-phenylamino)-pyrimidin-4-yl]-1H-indole-3-carboxmethylamide] | > 1000 nM |  |
| CN(C)CCN(C)c1ccc(Nc2nccc(-n3cc(C(N)=O)c4ccccc43)n2)cc1Cl [Compound 82, 1-(2-{3-chloro-4-[(2-dimethylamino-ethyl)-methyl-amino]-phenylamino}-pyrimidin-4-yl)-1H-indole-3-carboxamide] | 10 to 100 nM |  |
| C=CC(=O)N1CCN(c2cccc(Nc3nccc(-n4cc(C(N)=O)c5ccccc54)n3)c2)CC1 [Compound 127, 1-{2-[3-(4-acryloyl-piperazin-1-yl)-phenylamino]-pyrimidin-4-yl}-1H-indole-3-carboxamide] | 10 to 100 nM |  |
| NC(=O)c1cn(-c2nc(Nc3ccc(N4CCNCC4)cn3)ncc2Cl)c2ccccc12 [Compound 134, 1-[5-chloro-2-(5-piperazin-1-yl-pyridin-2-ylamino)-pyrimidin-4-yl]-1H-indole-3-carboxamide] | > 1000 nM |  |
| NC(=O)c1cn(-c2nc(Nc3cccc(N4CCN(C(=O)C5CCOCC5)CC4)c3)ncc2F)c2ccccc12 [Compound 166, 1-(5-Fluoro-2-{3-[4-(tetrahydro-pyran-4-carbonyl)-piperazin-1-yl]-phenylamino}-pyrimidin-4-yl)-1H-indole-3-carboxamide] | 10 to 100 nM |  |
| Cc1cc(Nc2nccc(-n3cc(C(N)=O)c4cccnc43)n2)ccc1N1CCN(C)CC1 [Compound 136] | 100 to 1000 nM |  |
| CN(C)CCOc1ccc(Nc2nccc(-n3cc(C(N)=O)c4ccccc43)n2)cc1 [Compound 19, 1-{2-[4-(2-dimethylamino-ethoxy)-phenylamino]-pyrimidin-4-yl}-1H-indole-3-carboxamide] | 10 to 100 nM |  |
| NC(=O)c1cn(-c2nc(Nc3cccc(N4CCNCC4)c3)ncc2F)c2ccccc12 [Compound 146] | 10 to 100 nM |  |
| CNC(=O)c1cn(-c2ccnc(Nc3ccc(C4CCN(C)CC4)cc3)n2)c2ccccc12 [Compound 104, 1-{2-[4-(1-methyl-piperidin-4-yl)-phenylamino]-pyrimidin-4-yl}-1H-indole-3-carboxmethylamide] | 10 to 100 nM |  |
| CC(=O)N1CCN(c2cccc(Nc3ncc(F)c(-n4cc(C(N)=O)c5ccccc54)n3)c2)CC1 [Compound 165, 1-{2-[3-(4-acetyl-piperazin-1-yl)-phenylamino]-5-fluoro-pyrimidin-4-yl}-1H-indole-3-carboxamide] | 10 to 100 nM |  |
| CC(=O)N1CCN(CCN(C)c2ccc(Nc3nccc(-n4cc(C(N)=O)c5ccccc54)n3)cc2)CC1 [Compound 74] | 10 to 100 nM |  |
| CN(C)CCSc1ccc(Nc2nccc(-n3cc(C(N)=O)c4ccccc43)n2)cc1 [Compound 23, 1-{2-[4-(2-dimethylamino-ethylthio)-phenylamino]-pyrimidin-4-yl}-1H-indole-3-carboxamide] | 10 to 100 nM |  |
| NC(=O)c1cn(-c2ccnc(Nc3cc(F)cc(C(F)(F)F)c3)n2)c2ccccc12 [Compound 4, 1-[2-(3-fluoro-5-trifluoromethyl-phenylamino)-pyrimidin-4-yl]-1H-indole-3-carboxamide] | > 1000 nM |  |
| CN(C)CCN(C)c1ccc(Nc2nccc(-n3cc(C(N)=O)c4ccccc43)n2)c(Br)c1 [Compound 78, 1-(2-{2-bromo-4-[(2-dimethylamino-ethyl)-methyl-amino]-phenylamino}-pyrimidin-4-yl)-1H-indole-3-carboxamide] | 100 to 1000 nM |  |
| CN(C)c1ccc(Nc2nccc(-n3cc(C(N)=O)c4ccccc43)n2)cc1 [Compound 75, 1-[2-(4-dimethylamino-phenylamino)-pyrimidin-4-yl]-1H-indole-3-carboxamide] | 100 to 1000 nM |  |
| CC(=O)N1CCN(c2ccc(Nc3nccc(-n4cc(C(N)=O)c5ccccc54)n3)cc2F)CC1 [Compound 66, 1-{2-[4-(4-acetyl-piperazin-1-yl)-3-fluoro-phenylamino]-pyrimidin-4-yl}-1H-indole-3-carboxamide] | 10 to 100 nM |  |
| NC(=O)c1cn(-c2ccnc(Nc3cccc(F)c3Cl)n2)c2ccccc12 [Compound 3, 1-[2-(2-chloro-3-fluoro-phenylamino)-pyrimidin-4-yl]-1H-indole-3-carboxamide] | > 1000 nM |  |

The next lines start with results.

| IC50 [1] | SMILES | IC50 (MOLM-13, read-out: IC50 of the compound for inhibiting cell growth, MOLM13 cells) |
| --- | --- | --- |
| 10 to 100 nM | CN(C)CCOc1cccc(Nc2nccc(-n3cc(C(N)=O)c4ccccc43)n2)c1 [Compound 129, 1-{2-[3-(2-dimethylamino-ethoxy)-phenylamino]-pyrimidin-4-yl}-1H-indole-3-carboxamide] |  |
| 10 to 100 nM | CNC(=O)N1CCN(c2cccc(Nc3ncc(F)c(-n4cc(C(N)=O)c5ccccc54)n3)c2)CC1 [Compound 172, 1-{5-fluoro-2-[3-(4-methylcarbamoyl-piperazin-1-yl)-phenylamino]-pyrimidin-4-yl}-1H-indole-3-carboxamide] |  |
| 10 to 100 nM | NC(=O)c1cn(-c2ccnc(Nc3ccc(N4CCNCC4)cc3)n2)c2c(F)cccc12 [Compound 31, 7-fluoro-1-[2-(4-piperazin-1-yl-phenylamino)-pyrimidin-4-yl]-1H-indole-3-carboxamide] |  |
| 10 to 100 nM | CN1CCN(c2cc(Nc3ncc(Cl)c(-n4cc(C(N)=O)c5ccccc54)n3)ccc2F)CC1 [Compound 119, 1-{5-chloro-2-[4-fluoro-3-(4-methyl-piperazin-1-yl)-phenylamino]-pyrimidin-4-yl}-1H-indole-3-carboxamide] |  |
| 1 to 10 nM | Cc1cnc(Nc2ccc(N3CCNCC3)cc2)nc1-n1cc(C(N)=O)c2ccccc21 [Compound 37, 1-[5-methyl-2-(4-piperazin-1-yl-phenylamino)-pyrimidin-4-yl]-1H-indole-3-carboxamide] |  |
| 10 to 100 nM | NC(=O)c1cn(-c2ccnc(Nc3ccc(NCCN4CCOCC4)cc3)n2)c2ccccc12 [Compound 9, 1-{2-[4-(2-morpholin-4-yl-ethylamino)-phenylamino]-pyrimidin-4-yl}-1H-indole-3-carboxamide] |  |
| < 1 nM | NC(=O)c1cn(-c2nc(Nc3ccc(N4CCNCC4)cc3)ncc2F)c2ccccc12 [Compound 35, 1-[5-fluoro-2-(4-piperazin-1-yl-phenylamino)-pyrimidin-4-yl]-1H-indole-3-carboxamide] |  |
| 1 to 10 nM | CN1CCN(c2ccc(Nc3nccc(-n4cc(C(N)=O)c5ccccc54)n3)cc2F)CC1 [Compound 46, 1-{2-[3-fluoro-4-(4-methyl-piperazin-1-yl)-phenylamino]-pyrimidin-4-yl}-1H-indole-3-carboxamide] |  |
| 1 to 10 nM | CN(C)CCN(C)c1ccc(Nc2ncc(F)c(-n3cc(C(N)=O)c4ccccc43)n2)cc1 [Compound 84, 1-(2-{4-[(2-dimethylamino-ethyl)-methyl-amino]-phenylamino}-5-fluoro-pyrimidin-4-yl)-1H-indole-3-carboxamide] |  |
| 1 to 10 nM | NC(=O)c1cn(-c2ccnc(Nc3ccc(N4CCNCC4)cc3)n2)c2cc(F)ccc12 [Compound 30, 6-fluoro-1-[2-(4-piperazin-1-yl-phenylamino)-pyrimidin-4-yl]-1H-indole-3-carboxamide] |  |
| 1 to 10 nM | COc1cc(Nc2nccc(-n3cc(C(N)=O)c4ccccc43)n2)ccc1N(C)CCN1CCCC1 [Compound 91] |  |
| 1 to 10 nM | CN1CCCN(c2cccc(Nc3nccc(-n4cc(C(N)=O)c5ccccc54)n3)c2)CC1 [Compound 112, 1-{2-[3-(4-methyl-[1,4]homopiperazin-1-yl)-phenylamino]-pyrimidin-4-yl}-1H-indole-3-carboxamide] |  |
| 1 to 10 nM | CN1CCN(c2cc(F)cc(Nc3nccc(-n4cc(C(N)=O)c5ccccc54)n3)c2)CC1 [Compound 114, 1-{2-[3-fluoro-5-(4-methyl-piperazin-1-yl)-phenylamino]-pyrimidin-4-yl}-1H-indole-3-carboxamide] |  |
| 1 to 10 nM | COc1cc(Nc2nccc(-n3cc(C(N)=O)c4ccccc43)n2)ccc1N(C)CCN(C)C [Compound 80, 1-(2-{4-[(2-dimethylamino-ethyl)-methyl-amino]-3-methoxy-phenylamino}-pyrimidin-4-yl)-1H-indole-3-carboxamide] |  |
| 1 to 10 nM | CN1CCN(c2ccc(Nc3ncc(Cl)c(-n4cc(C(N)=O)c5ccccc54)n3)cc2F)CC1 [Compound 61, 1-{5-chloro-2-[3-fluoro-4-(4-methyl-piperazin-1-yl)-phenylamino]-pyrimidin-4-yl}-1H-indole-3-carboxamide] |  |
| 1 to 10 nM | NC(=O)c1cn(-c2nc(Nc3cccc(N4CCN(C5CCOC5)CC4)c3)ncc2F)c2ccccc12 (centres unmarked) [Compound 150, 1-(5-fluoro-2-{3-[4-(tetrahydro-furan-3-yl)-piperazin-1-yl]-phenylamino}-pyrimidin-4-yl)-1H-indole-3-carboxamide] |  |
| < 1 nM | CCN1CCN(c2cccc(Nc3ncc(F)c(-n4cc(C(N)=O)c5ccccc54)n3)c2)CC1 [Compound 142, 1-{2-[3-(4-ethyl-piperazin-1-yl)-phenylamino]-5-fluoro-pyrimidin-4-yl}-1H-indole-3-carboxamide] |  |
